Here are results for eight compounds from patent US20260240976A1, “T[…] VACCINES BASED ON VALIDATED TARGET EPITOPES” (Deutsches Krebsforschungszentrum Stiftung des öffentlichen …, priority 2023, published 2026).

Where a SMILES comes first, the peptide text is derived from it.

Series [1] concerns short-term antigen-specific T cell lines generated from PBMCs. The experiment in a line: Interferon-γ ELISpot assay on short-term antigen-specific T cell lines. It is filed as cell-based, human. To be noted: HLA restriction A24.
In another series the test system is HPV16-positive cells. The series is described as follows: Cytotoxicity assay (VITAL FR / live-cell imaging-based) with peptide-specific CD8+ T cells. Further details: species or system human; key: +: cytotox: Ability of peptide-specific T cells to kill HPV16-positive cells.; +*: *highlights data from published resources.; *highlights data from published resources. How it is done: The flow cytometry based VITAL FR cytotoxicity assay was used as published by Stanke et al. (Stanke et al., 2010) to assess whether peptide-specific T cells are able to specifically kill HPV-transformed target cells. Briefly, two HLA-A2+ cell lines, a HPV16-negative (HPV16−) control cell line (C33A) and a HPV16-positive (HPV16+) target cell line (CaSki) were fluorescently labeled with either FarRed or CFSE and were co-incubated with peptide-specific CD8+ T cells as effector cells. After 48 h co-incubation, the fluorescently labeled cells were analyzed by flow cytometry to determine the surviving cells and calculate the specific cytolytic function of the effector cells by the ratio of target and control cells.
CaSki and C33A cells were fluorescently labeled with CFSE and FarRed, respectively. Cells of both cell lines were harvested and resuspended in plain RPMI medium at a concentration of 1×10^6 cells/mL. For cell labeling, 5 μM CSFE were added to CaSki cells and 0.25 μM FarRed were added to C33A cells. The cells were incubated at 37° C. and the reaction was stopped after 10 min by addition of 50 mL RPMI with 10% FBS. The cells were centrifuged at 300×g for 5 min, the supernatant was discarded and the cells were resuspended in their cell culture medium. The labeled cells were seeded in T25 cell culture flasks with 1-2×10^6 cells/flask.
On the next day, the labeled CaSki and C33A as well as the epitope-specific semi-long-term T cell lines (described in 1.6) were harvested. CD8+ T cells were isolated from the epitope-specific semi-long-term T cell lines using the MACS CD8+ T cell isolation kit (Miltenyi Biotec) according to the manufacturer's protocol for LS columns. The CD8+ T cells were resuspended in T cell medium and added to wells of a F-bottom 96-well plate in serial dilutions to achieve triplicates of 6×10^4, 3×10^4, 1.5×10^4, 0.75×10^4 and 0.375×10^4 cells per well. The CaSki and C33A cells were mixed 1:1 in T cell medium and 3×10^3 cells were added to each well containing T cells. Thereby effector:target (E:T) ratios of […] were achieved. Additionally, triplicates of mixed target cells without T cells were seeded, which is referred to as E:T 0. After 48 h incubation at 37° C., 5% C02, the cells were harvested and analyzed at a BD FACS Canto™ II analyzer using the BD FACS Diva Software Version 6. The obtained data were analyzed with the FlowJo software Version 10 by applying the same gating strategy to all samples. Subsequently, the equations (1) and (2) given below were applied in Excel (Microsoft Office 2016) to calculate specific killing.
Semi long-term T cell lines were set up to obtain high numbers of T cells, which are required for the analysis of epitope specific cytotoxic T cell responses in VITAL FR cytotoxicity assays. Autologous DCs were generated from PBMCs as described in 1.7 and loaded with the desired HPV16 peptide. PBMCs of the same donor were thawed and resuspended in T cell medium supplemented with rhIL-7 (10 ng/mL) and rhIL-15 (20 ng/mL). 1×10^7 PBMCs/well were seeded to a 24-well plate in a total volume of 1 mL/well. Peptide-loaded DCs were added in a ratio of 50:1 (PBMCs:DCs) in 1 mL rhIL-7 (10 ng/mL) and rhIL-15 (20 ng/mL) supplemented T cell medium to achieve a final volume of 2 mL. The cell cultures were fed with rhIL-2 (final concentration: 40 U/mL) every other day. If the medium turned yellow the feeding was combined with a half medium change with 1 mL fresh IL-2 supplemented T cell medium. After eight days, the peptide stimulation with peptide-loaded DCs was repeated and cultivation was continued. On day 15, the T cell lines were harvested and used for CD8+ T cell isolation and cytotoxicity assays.
In addition to the VITAL FR assay described herein above, a newly established live-cell imaging-based cytotoxicity assay was applied. […]

As to “83 (TFCCKCDSTL; Human papillomavirus 16) [compound 83]”, the “ELISpot: Immungenicity of the peptide shown by IFN-gamma ELISPOT analysis” value in series [1] is recorded as “+”. Also, the “cytotox: Ability of peptide-specific T cells to kill HPV16-positive cells” value (“cytotox: Ability” for short) in the series on HPV16-positive cells (HLA restriction A24) is “+”.
`CSCC[C@H](NC(=O)[C@H](CC(C)C)NC(=O)[C@H](CC(C)C)NC(=O)[C@H](CC(=O)O)NC(=O)[C@H](CCC(=O)O)NC(=O)[C@H](CC(C)C)NC(=O)[C@@H](NC(=O)[C@@H](N)CCCNC(=N)N)[C@@H](C)O)C(=O)NCC(=O)N[C@H](C(=O)N[C@@H](CC(C)C)C(=O)O)[C@@H](C)O` [compound 19] (H-RTLEDLLMGTL-OH): in the series with HPV16-positive cells (HLA restriction A02), the “cytotox: Ability” value is reported as “+”.
In the case of `CC[C@H](C)[C@H](NC(=O)[C@H](CC(=O)O)NC(=O)[C@H](Cc1c[nH]cn1)NC(=O)[C@@H](NC(=O)[C@@H](NC(=O)[C@@H](N)[C@@H](C)O)[C@@H](C)O)[C@@H](C)CC)C(=O)N[C@H](C(=O)N[C@@H](CC(C)C)C(=O)N[C@@H](CCC(=O)O)C(=O)N[C@@H](CS)C(=O)N[C@H](C(=O)O)C(C)C)[C@@H](C)CC` [compound 49] (H-TTIHDIILECV-OH), the “cytotox: Ability” value in the series on HPV16-positive cells (HLA restriction A02) was “+”.
Turning to `CC[C@H](C)[C@H](NC(=O)[C@@H]1CCCN1C(=O)[C@H](CS)NC(=O)[C@@H](NC(=O)[C@@H](NC(=O)CNC(=O)[C@H](CC(C)C)NC(=O)[C@@H](NC(=O)CNC(=O)[C@@H](N)CCSC)[C@@H](C)O)[C@@H](C)CC)C(C)C)C(=O)O` [compound 33] (H-MGTLGIVCPI-OH), the “cytotox: Ability” value in the series on HPV16-positive cells (HLA restriction A02) is “+”.
`CC[C@H](C)[C@H](NC(=O)CNC(=O)[C@H](CC(C)C)NC(=O)[C@@H](NC(=O)CNC(=O)[C@H](CCSC)NC(=O)[C@H](CC(C)C)NC(=O)[C@@H](N)CC(C)C)[C@@H](C)O)C(=O)N[C@H](C(=O)N[C@@H](CS)C(=O)N1CCC[C@H]1C(=O)O)C(C)C` [compound 44] (H-LLMGTLGIVCP-OH): the “cytotox: Ability” value in the series with HPV16-positive cells (HLA restriction A02) is on record as “+”.
As to `CC[C@H](C)[C@H](NC(=O)CNC(=O)[C@H](CC(C)C)NC(=O)[C@@H](NC(=O)CNC(=O)[C@H](CCSC)NC(=O)[C@H](CC(C)C)NC(=O)[C@H](CC(C)C)NC(=O)[C@H](CC(=O)O)NC(=O)[C@@H](N)CCC(=O)O)[C@@H](C)O)C(=O)N[C@H](C(=O)O)C(C)C` [compound 21] (H-EDLLMGTLGIV-OH), the “cytotox: Ability” value in the series with HPV16-positive cells (HLA restriction A02) is “+”.
On to `CC[C@H](C)[C@H](N)C(=O)N[C@@H](CCCNC(=N)N)C(=O)N[C@H](C(=O)N[C@@H](CC(C)C)C(=O)N[C@@H](CCC(=O)O)C(=O)N[C@@H](CC(=O)O)C(=O)N[C@@H](CC(C)C)C(=O)N[C@@H](CC(C)C)C(=O)N[C@@H](CCSC)C(=O)NCC(=O)N[C@H](C(=O)O)[C@@H](C)O)[C@@H](C)O` [compound 52] (H-IRTLEDLLMGT-OH), for which, in the series on HPV16-positive cells (HLA restriction A02), the “cytotox: Ability” value was “+”.
Consider `CC[C@H](C)[C@H](NC(=O)[C@@H]1CCCN1C(=O)[C@H](CS)NC(=O)[C@@H](NC(=O)[C@@H](NC(=O)CNC(=O)[C@H](CC(C)C)NC(=O)[C@@H](NC(=O)CNC(=O)[C@H](CCSC)NC(=O)[C@@H](N)CC(C)C)[C@@H](C)O)[C@@H](C)CC)C(C)C)C(=O)O` [compound 25] (H-LMGTLGIVCPI-OH), for which the “cytotox: Ability” value in the series on HPV16-positive cells (HLA restriction A02) is given as “+”.
